Assay results: PMC4915154, “Development of background-free tame fluorescent probes for intracellular live cell imaging” (Nature Communications, 2016)

System: U-2 OS and CHO cell lines
Experiment: Cellular retention and efflux characteristics test (before/after washing imaging, retaining ratio RR)
Format: cell-based, human (U-2 OS), Chinese hamster (CHO)
Details: 30 min
Excerpt: To expedite an efficient strategy for ‘tame' probe development, we set up a system to predict cellular properties of fluorescent probes via phenotypic high-throughput screening (HTS), cheminformatics and statistical analysis (Fig. 1a). As the first step, we conducted phenotypic HTS to investigate cell permeability and nonspecific binding properties of the probes in a training set. We tested about 2,085 probes consisted of a wide range photophysical properties from numerous fluorophore cores such as BODIPY[12][13][14][15], xanthone, rosamine, cyanine[19][20] and ACEMAN[21]. Their cellular influx and efflux profiles were examined in two types of mammalian cells, U-2 OS and CHO. These cell lines were chosen due to their flexibility in genetic manipulation, adaptability to various culture conditions and versatility in wide biomedical research such as gene expression, toxicity screening, recombinant protein and live cell imaging. Each of the probes was added into live cells and cell image was taken after 30 min by ImageXpress Micro cellular imaging system (Molecular Device). The cells were then washed with fresh growth media, and after another 10 min, a second image was taken to check the completeness of probe washing out of the cell. The first and second imaging facilitated influx (before washing, BW) and efflux (after washing, AW) measurements, respectively (Supplementary Fig. 1).
To measure the influx and efflux of the probes, an automated quantitative intensity-based image analysis was then performed by Multi-Wavelength Cell Scoring analysis using MetaXpress High Content Image software. Retaining ratio (RR, per cent ratio of the average intensity of AW image over BW image) was computed to classify probes into the three phenotypic groups. For each cell in the image, the nuclei and cell region were segmented to provide approximate cellular boundaries. Fluorescence intensity was then quantified on a cell-by-cell basis by the following steps: (i) selecting the image of interest, (2) specifying the width of the stained cell area, (3) adjusting the intensity above local background for detection specificity, and (4) calculating fluorescence intensity with specified reporting parameters. Average fluorescence intensity for each BW and AW images was calculated for each probes and cell lines, and was then used as input in RR calculation (Supplementary Figs 2 and 3).
U-2 OS, a human osteosarcoma cell line, and CHO, a Chinese hamster ovary cell line, (from ATCC) were cultured in Dulbecco's modified eagle's medium (DMEM) (Invitrogen, CA, USA) supplemented with fetal bovine serum (FBS) (10%) and penicillin–streptomycin (1%). Materials used in the cell culture were purchased from Invitrogen. U-2 OS and CHO cells were seeded onto 96-well plate in growth media at 37 °C in the presence of 5% CO2 and were then allowed to attach and grow to 70–80% confluence. Library probes were dissolved in dimethylsulfoxide (DMSO) to make the 1 mM solution, and stored in −20 °C. Before HTS experiment, the growth media was aspirated and replaced by 200 μl fresh growth media containing probes in final concentration of 1 μM and nuclei dye Hoechst 33342. Plates were incubated for 30 min at 37 °C then were imaged using ImageXpress Micro cellular imaging system (Molecular Device) with × 10 objective lens. Immediately after image acquisition, the cells were washed with fresh growth media, and transferred back to a 37 °C cell incubator for further incubation. After 10 min, cells were again imaged (AW image). The first imaging step allowed influx measurement of BW image , while the second imaging step allowed out-flux measurement of AW image. Images of two regions per well were acquired with DAPI, FITC, TRITC or Texas Red filter sets according to probes' excitation and emission wavelength. Experiment was performed in duplicate. Cellular retention and efflux characteristics test for other synthesized probes were also done by using the same protocol. […]

Cc1cc(C)n2c1C(CCNC(=O)CCC(=O)OCC1C3CCC#CCCC31)=C1C=CC=[N+]1[B-]2(F)F (centres unmarked) [CO-1]
Cellular retention after washing (probe signal) (CHO and U-2 OS cells, 1 uM probe): leave the cells after washing | Experimentally observed group (U-2 OS and CHO cell lines, probe 1 μM, imaged before and 10 min after washing): L-group (Probes (FI(BW) >200) with rapid efflux were observed to have a RR of <5%, and thus were classified into L-group)
